Data reported in patent US12503475B2 (Centessa Pharmaceuticals (UK) Limited, priority 2020, dated 2025).

Target: T1, human orexin type 2 receptor (hOX2R) (Homo sapiens, UniProt O43614)
T1 construct: expressed in transfected cells
T1 sequence (O43614 1-444): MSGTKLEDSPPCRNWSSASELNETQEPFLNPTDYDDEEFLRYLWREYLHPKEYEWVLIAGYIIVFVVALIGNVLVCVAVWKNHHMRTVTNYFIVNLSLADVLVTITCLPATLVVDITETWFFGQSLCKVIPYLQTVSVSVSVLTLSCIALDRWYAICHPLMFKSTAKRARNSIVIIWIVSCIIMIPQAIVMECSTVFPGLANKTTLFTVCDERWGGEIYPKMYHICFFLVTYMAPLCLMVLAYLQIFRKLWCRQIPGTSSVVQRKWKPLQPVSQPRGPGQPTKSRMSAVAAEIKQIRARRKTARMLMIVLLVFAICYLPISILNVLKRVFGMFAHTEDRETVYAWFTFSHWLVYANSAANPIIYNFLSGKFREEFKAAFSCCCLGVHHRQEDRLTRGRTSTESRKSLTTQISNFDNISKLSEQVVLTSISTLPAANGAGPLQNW
Experiment: Measurement of orexin type 2 receptor agonist activity (FLIPR calcium fluorescence)
Format: cell-based
Details: CHO cells expressing hOX2R, FLIPR calcium fluorescence; for EC50: read-out: hOx2 pEC50 (converted); for Emax: CHO, read-out: hOx2 Emax (%)
Method in brief: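 Agonism was read as fluorescence in cells stably expressing human OX2R. E. is the response at 10 μM relative to orexin A as full agonist (100%).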

Compound | EC50 [nM] | Emax [%] | hOx2 Emax (%) | hOx2 pEC50
CS(=O)(=O)N[C@H]1[C@@H](Cc2cccc(-c3cccc(F)c3)c2F)N(C(=O)N2CCC2)CC12CC2 [Compound 26, N-((6R,7R)-5-(azetidine-1-carbonyl)-6-((2,3′-difluoro-[1,1′-biphenyl]-3-yl)methyl)-5-azaspiro[2.4]heptan-7-yl)methanesulfonamide] | 10 to 100 | 90 to 100 | – | –
O=C([C@H]1CCO1)N1CC2(CC2)[C@H](NS(=O)(=O)C2COC2)[C@@H]1Cc1cccc(-c2ccccc2)c1 [Compound 77, N-((6S,7S)-6-([1,1′-biphenyl]-3-ylmethyl)-5-((R)-oxetane-2-carbonyl)-5-azaspiro[2.4]heptan-7-yl)oxetane-3-sulfonamide] | 10 to 100 | 90 to 100 | – | –
O=C([C@H]1CCO1)N1CC2(CC2)[C@H](NS(=O)(=O)C(F)F)[C@@H]1Cc1cccc(-c2cc(F)ccc2F)c1F [Compound 171, 1,1-difluoro-N-((6S,7S)-5-((R)-oxetane-2-carbonyl)-6-((2,2′,5′-trifluoro-[1,1′-biphenyl]-3-yl)methyl)-5-azaspiro[2A]heptan-7-yl)methanesulfonamide] | 1 to 10 | 90 to 100 | – | –
CC(C)NC(=O)N1CC2(CC2)[C@H](NS(C)(=O)=O)[C@@H]1Cc1cccc(-c2ccccc2)c1F [Compound 85] | 0.0794 to 1 | 90 to 100 | – | –
C[C@@H](F)C(=O)N1CC2(CC2)[C@H](NS(=O)(=O)C(F)F)[C@@H]1Cc1cc(F)cc(-c2cc(F)cc(F)c2)c1F [Compound 406, 1,1-difluoro-N-((6S,7S)-5-((R)-2-fluoropropanoyl)-6-((2,3′,5,5′-tetrafluoro-[1,1′-biphenyl]-3-yl)methyl)-5-azaspiro[2.4]heptan-7-yl)methanesulfonamide] | 0.0794 to 1 | 90 to 100 | – | –
O=C([C@@H](O)C1CC1)N1CC2(CC2)[C@H](NS(=O)(=O)C(F)F)[C@@H]1Cc1cc(F)cc(-c2ccccc2)c1F [Compound 385] | 0.0794 to 1 | 90 to 100 | – | –
COC1(CNC(=O)N2CC3(CC3)[C@H](NS(C)(=O)=O)[C@@H]2Cc2cccc(-c3ccccc3)c2F)CC1 [Compound 100, (6S,7S)-6-((2-fluoro-[1,1′-biphenyl]-3-yl)methyl)-N-((1-methoxycyclopropyl)methyl)-7-(methylsulfonamido)-5-azaspiro[2.4]heptane-5-carboxamide] | 0.0794 to 1 | 90 to 100 | – | –
CS(=O)(=O)N[C@@H]1[C@H](Cc2cccc(-c3ccccc3)c2F)N(C(=O)N2CC[C@H]2CF)CC12CC2 [Compound 80, N-((6S,7S)-6-((2-fluoro-[1,1′-biphenyl]-3-yl)methyl)-5-((S)-2-(fluoromethyl)azetidine-1-carbonyl)-5-azaspiro[2.4]heptan-7-yl)methanesulfonamide] | 0.0794 to 1 | 90 to 100 | – | –
N-((6S,7S)-6-((2-fluoro-[1,1′- biphenyl]-3-yl)methyl)-5-((R)- 2-(fluoromethyl)azetidine-1- carbonyl)-5- azaspiro[2.4]heptan-7- yl)metbanesulfonamide [Compound 314] | – | – | A (Emax ranging between 90 and 100) | **** (pEC50 ranging between 8.0 and 9.0)
CN(C)C(=O)N1CC2(CC2)[C@H](NS(C)(=O)=O)[C@@H]1Cc1cc(F)cc(-c2ccccc2)c1F [Compound 354, (6S,7S)-6-((2,5-difluoro-[1,1′-biphenyl]-3-yl)methyl)-N,N-dimethyl-7-(methylsulfonamido)-5-azaspiro[2.4]heptane-5-carboxamide] | 10 to 100 | 90 to 100 | – | –
O=C(NCC1(F)CC1)N1CC2(CC2)[C@H](NS(=O)(=O)C(F)F)[C@@H]1Cc1cccc(-c2cc(F)cc(F)c2)c1F [Compound 235, (6S,7S)-7-((difluoromethyl)sulfonamido)-N-((1-fluorocyclopropyl)methyl)-6-((2,3′,5′-trifluoro-[1,1′-biphenyl]-3-yl)methyl)-5-azaspiro[2.4]heptane-5-carboxamide] | 1 to 10 | 90 to 100 | – | –
C[C@@]1(C(=O)N2CC3(CC3)[C@H](NS(=O)(=O)CF)[C@@H]2Cc2cccc(-c3ccccc3)c2F)CCO1 [Compound 203, 1-fluoro-N-((6S,7S)-6-((2-fluoro-[1,1′-biphenyl]-3-yl)methyl)-5-((S)-2-methyloxetane-2-carbonyl)-5-azaspiro[2.4]heptan-7-yl)methanesulfonamide] | 1 to 10 | 90 to 100 | – | –
COCCNC(=O)N1CC2(CC2)[C@H](NS(C)(=O)=O)[C@@H]1Cc1cccc(-c2ccccc2)c1F [Compound 311, (6S,7S)-6-((2-fluoro-[1,1′-biphenyl]-3-yl)methyl)-N-(2-methoxyethyl)-7-(methylsulfonamido)-5-azaspiro[2.4]heptane-5-carboxamide] | 1 to 10 | 90 to 100 | – | –

Second part, led by results:

EC50 [nM] | Emax [%] | Compound | hOx2 Emax (%) | hOx2 pEC50
1 to 10 | 90 to 100 | CS(=O)(=O)N[C@@H]1[C@H](Cc2cccc(-c3cccc(Cl)c3)c2F)N(C(=O)[C@H]2CCO2)CC12CC2 [Compound 161, N-((6S,7S)-6-((3′-chloro-2-fluoro-[1,1′-biphenyl]-3-yl)methyl)-5-((R)-oxetane-2-carbonyl)-5-azaspiro[2.4]heptan-7-yl)methanesulfonamide] | – | –
1 to 10 | 90 to 100 | CC(C)(F)S(=O)(=O)N[C@@H]1[C@H](Cc2cccc(-c3ccccc3)c2F)N(C(=O)[C@H]2CCO2)CC12CC2 [Compound 398, 2-fluoro-N-((6S,7S)-6-((2-fluoro-[1,1′-biphenyl]-3-yl)methyl)-5-((R)-oxetane-2-carbonyl)-5-azaspiro[2.4]heptan-7-yl)propane-2-sulfonamide] | – | –
0.0794 to 1 | 90 to 100 | COC1(CNC(=O)N2CC3(CC3)[C@H](NS(=O)(=O)CF)[C@@H]2Cc2cccc(-c3ccccc3)c2F)CC1 [Compound 370, (6S,7S)-6-((2-fluoro-[1,1′-biphenyl]-3-yl)methyl)-7-((fluoromethyl)sulfonamido)-N-((1-methoxycyclopropyl)methyl)-5-azaspiro[2.4]heptane-5-carboxamide] | – | –
0.0794 to 1 | 90 to 100 | CC(C)S(=O)(=O)N[C@@H]1[C@H](Cc2cc(F)cc(-c3cc(F)cc(F)c3)c2F)N(C(=O)[C@H]2CCO2)CC12CC2 [Compound 395, N-((6S,7S)-5-((R)-oxetane-2-carbonyl)-6-((2,3′,5,5′-tetrafluoro-[1,1′-biphenyl]-3-yl)methyl)-5-azaspiro[2.4]heptan-7-yl)propane-2-sulfonamide] | – | –
1 to 10 | 90 to 100 | O=C([C@H]1CCO1)N1CC2(CC2)[C@H](NS(=O)(=O)C2CC2)[C@@H]1Cc1cc(F)cc(-c2cc(F)cc(F)c2)c1F [Compound 405, N-((6S,7S)-5-((R)-oxetane-2-carbonyl)-6-((2,3′,5,5′-tetrafluoro-[1,1′-biphenyl]-3-yl)methyl)-5-azaspiro[2.4]heptan-7-yl)cyclopropanesulfonamide] | – | –
1 to 10 | 90 to 100 | COC1CN(C(=O)N2CC3(CC3)[C@H](NS(=O)(=O)CF)[C@@H]2Cc2cccc(-c3cccc(F)c3)c2F)C1 [Compound 400, N-((6S,7S)-6-((2,3′-difluoro-[1,1′-biphenyl]-3-yl)methyl)-5-(3-methoxyazetidine-1-carbonyl)-5-azaspiro[2.4]heptan-7-yl)-1-fluoromethanesulfonamide] | – | –
